The subject of data set [1] is protease VapK. Put plainly: Effects of inhibitors on the activity of the protease VapK. The data set is classed as biochemical, Vibrio metschnikovii KS1. Here is the method:
(§1) The activity of the alkaline protease was determined by the method of Yanagida et al with minor modifications. The reaction mixture was prepared by mixing 100 mM sodium carbonate solution with the supernatant formed after centrifuging the culture broth at 6,000 rpm for 15 minutes. 0.5 ml of the fermentation broth was mixed with 2.5 ml of 1% prewarmed casein solution in 100 mM sodium carbonate buffer (pH 10.5). The resulting mixture was incubated at 37° C. for 10 minutes. The reaction was terminated by adding a solution consisting 0.22 M trichloroacetic acid, 0.22 M sodium acetate and 0.22 M acetic acid. The reaction mixture was placed on ice for 10 minutes followed by centrifugation. 1 ml of the supernatant was mixed with 9 ml of distilled water. The optical density (O.D.) was measured at 280 nm. The result is indicated as unit. One unit of the enzyme is defined as the amount of protein which produces an increase of 0.1 absorbance unit under the assay conditions.

For data set [2], the system named is protease VapK. In words: Resistance of the protease VapK to surfactants (N-succinyl-ala-ala-pro-phe-p-nitroanilide substrate). The data set is classed as biochemical, Vibrio metschnikovii KS1. The settings on record: for Relative Residual Activity (%): 25° C. for 25 minutes, relative to activity without surfactant. The method, then: In addition, the resistance of the protease VapK to various surfactants was tested. The enzyme sample was appropriately diluted in distilled water. The diluted solution was mixed with each surfactant in the same ratio. The mixture was reacted at 25° C. for 25 minutes. A substrate solution of 5 mM N-succinyl-ala-ala-pro-phe-p-nitroanilide in 1 M tris-HCl, pH 9.0 was added to the reaction mixture in the ratio of 1 to 10. The reaction mixture was reacted at 25° C. for 30 minutes. The optical density of the reaction mixture was measured at 410 nm to determine the enzymatic activity of the protease VapK.

The subject of a further data set is casein. Put plainly: Alkaline protease activity of culture broth (casein method of Yanagida et al, modified). It is filed as biochemical. Here is the method:
as §1
E. coil HB101 harboring the plasmid pSB1 was cultured in an LB medium. The culture broth was recovered and subjected to electrophoresis. As a result (FIG. 8), the expressed protease VapK was detected at the 27 kDa band. In addition, the proteolytic activity of the enzyme was measured.

The format of data set [3] is biochemical. The text has this:
It can be seen from the above results that the vapk gene contained in the recombinant plasmid pSB1 was expressed in E. coli HB 101 and the expressed protease VapK was secreted extracellularly. […] (FIG. 9).

Setting [4] is: inhibitor 1 mM, pre-reacted 20 minutes at 4° C.
The mark [5] stands for this setting: inhibitor 1 mM, pre-reacted 20 minutes at 20° C.

“Also recorded” adds a separate entry of the source.

For `O=C(O)CN(CCN(CC(=O)O)CC(=O)O)CC(=O)O` [EDTA, ethylenediamine tetraacetic acid], the “Relative Activity (%)” value in the data set with protease VapK [1] (inhibitor 100 mM, pre-reacted 20 minutes at 4° C.) was 86%; in the data set with protease VapK [1] (inhibitor 100 mM, pre-reacted 20 minutes at 20° C.), 100%.

In the case of `O=C(O)CN(CCOCCOCCN(CC(=O)O)CC(=O)O)CC(=O)O` [EGTA, ethyleneglycol-bis(β-aminoethyl ether)N,N,N′,N′-tetraacetic acid], the “Relative Activity (%)” value with protease VapK [1] (setting [4]) and in the data set with protease VapK [1] (setting [5]) was 100% throughout.

In the case of `N[C@@H](CS)C(=O)O` [L-cysteine], the “Relative Activity (%)” value was found to be 99% in the data set on protease VapK [1] (setting [4]) and 100% in the data set with protease VapK [1] (setting [5]).

For the molecule `O=S(=O)(F)Cc1ccccc1` [PMSF, phenylmethanesulfonyl fluoride], in the data set with protease VapK [1], the “inhibition of the enzymatic activity of the protease VapK (in words)” value was “inhibited”. Further, the figures for the “Relative Activity (%)” value with protease VapK [1] (setting [4]) and in the data set on protease VapK [1] (setting [5]) were 6% and 13%, respectively.

Regarding `CCCCCCCCCCCCOS(=O)(=O)[O-].[Na+]` [SDS, sodium dodecyl sulfate], the “Relative Residual Activity (%)” value in the data set on protease VapK [2] (surfactant 1000 ppm) is more than 100%; in the data set with protease VapK [2] (surfactant 1500 ppm), less than 70%.

As to “Polyoxyethylene Alkylether [Polyoxyethylene Alkylether (EO = 15 mol)]”, the “Relative Residual Activity (%)” value with protease VapK [2] (surfactant 30000 ppm) is more than 100%.

As for Sodium-α-olefin sulfonate [AOS], the “Relative Residual Activity (%)” value with protease VapK [2] (surfactant 10000 ppm) is recorded as more than 100%; in the data set with protease VapK [2] (surfactant 15000 ppm) it was more than 70%.

B1: VapK: alkaline serine protease of 27 kDa produced by Vibrio metschnikovii KS1, amino acid sequence SEQ ID NO. 1 (protein, listed as Vibrio metschnikovii)
chain: MFKKNVNRTVLAGLLLPTSISLAIASQLKDQEVPSFTPSVAVENHQTEQRYFVTYVPGATSGPMRMSQNGLTETDFSLQKAADILSTQQVTVINHLESLHTSVVRVTPTQAKQLLDNADVAMIEVDPIRYLFDAEIEPYAQQTPYGIRMVQADQLSDVYAANRKVCVIDSGYLRNHVDLPSAGVTGSTFSGHGSWFTDGNGHGTHVAGTIVALDNNVGVVGVLPSGLVGLHNVKIFNDSGVWTRASDLIQAIQSCQSAGSHVVNMSLGGSQGSVTEQKPMRNFYQQGMLLVAAAGNSGNSGFSYPASYDAVVSVAAVNSSGNVANFSQFNSQVELSAPGVGVLSTGNNGGYLSYSGTSMASPHVAGVAALVWSHFPQCRPERIRQSLSQTALDRGAAGRDNFYGWGIVQARRAYNWLSRNGC
As to B1, in the data set on casein (Strain E. coli HB 101 harboring plasmid pSB1, LB medium culture broth), the “Activity (proteolytic activity of expressed Vap K)” value is on record as 30.3 unit/ml. Moreover, the “Activity (proteolytic activity of expressed Vap K)” value with casein (Strain Vibrio metschnikovii KS1, culture broth) was 956.2 unit/ml. Besides, in data set [3], the “influence of temperature on stability” value was “influenced slightly”, the “pH of optimum activity” value was determined as 10.5, the “stability over pH” value is listed as “stability in the entire pH range” and the “temperature of optimum activity” value amounted to 50 °C. Also, the “resistance / stability to surfactants (in words)” value in the data set with protease VapK [2] (surfactants such as LAS, SDS, AOS, polyoxyethylene alkylether) is “very resistant; also recorded: high resistance; also recorded: very stable”.

(Values after patent US6955907B1, “Alkaline, protease VapK suitable for laundry detergent, VapK gene, recombinant expression vector, and transformed microorganisms” (priority 1999, dated 2005).)
